According to paper PMC10349806 (Nature Communications, 2023):
Where a chain is given by its changes, count along the chain named. Values joined by “and” are separate entries in the source; they are usually repeats but may differ in a detail not shown here. Equal values may be shown once.

What was measured:
PfCRT variant D377A = molecular target: T1, PfCRT variant D377A (Plasmodium falciparum, UniProt Q9N623, A220S/D377A/I356T/K76T/M74I/N326S/N75E/Q271E/R371I); test: CQ uptake assay, oocytes expressing D377A; assay type: cell-based
T1 sequence (Q9N623 1-424 M74I/N75E/K76T/A220S/Q271E/N326S/I356T/R371I/D377A): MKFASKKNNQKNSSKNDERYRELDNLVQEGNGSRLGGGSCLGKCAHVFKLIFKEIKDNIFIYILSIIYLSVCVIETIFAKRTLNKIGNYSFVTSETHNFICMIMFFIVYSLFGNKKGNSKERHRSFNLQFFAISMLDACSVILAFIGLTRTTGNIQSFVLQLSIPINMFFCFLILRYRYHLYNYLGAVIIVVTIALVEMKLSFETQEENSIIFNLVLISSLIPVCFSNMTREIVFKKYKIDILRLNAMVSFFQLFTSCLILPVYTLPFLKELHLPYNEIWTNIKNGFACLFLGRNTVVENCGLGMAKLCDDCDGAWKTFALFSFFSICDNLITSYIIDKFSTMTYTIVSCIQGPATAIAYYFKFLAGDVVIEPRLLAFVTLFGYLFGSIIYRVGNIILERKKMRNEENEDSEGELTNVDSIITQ
Procedure: (§1) Site-directed mutagenesis of PfCRT^Dd2 was performed as described using the megaprimer method with overlap extension[21],[54]. The primer pairs used are listed in Supplementary Table 6. Please note that a codon-optimized and oocyte-adapted version of PfCRT^Dd2 was used[22] (Supplementary Fig. 16). The resulting DNA fragment was cloned into the SP64T expression vector and verified by sequencing.
(§2) Oocytes were obtained as described previously. Briefly, adult (>2 years old) female X. laevis frogs (NASCO) were anesthetized in a cooled solution of ethyl 3-amino benzoate methanesulfonate (0.1%, w/v), followed by a surgical removal of parts of the ovary. The ovary lobes were carefully dissected and small pieces of oocytes were incubated in Ca^2+-free ND96 buffer (96 mM NaCl, 2 mM KCl, 1 mM MgCl2 buffered with 5 mM HEPES/NaOH, pH 7.5) supplemented with collagenase D (0.1%, w/v; Roche), BSA (0.5%, w/v), and 9 mm Na2HPO4 at 18 °C for 14-16 h while gentle shaking. After incubation, the oocytes were carefully washed several times with ND96 buffer (96 mM NaCl, 2 mM KCl, 1.8 mM CaCl2, 1 mM MgCl2 buffered with 5 mM HEPES/NaOH, pH 7.5) supplemented with 100 mg l^−1 gentamycin). Defolliculated and healthy-looking stage V-VI oocytes were manually selected for RNA microinjection. The RNA was generated as following: The codon-optimized sequences of PfCRT variants were cloned into the pSP64T expression vector. After vector linearization using the restriction endonucleases BamHI or SalI (New England Biolabs), transcription was performed using the in vitro SP6 mMessage mMachine Kit (Ambion)[34]. The obtained RNA was kept at −80 °C and diluted with nuclease-free water to a concentration of 0.6 μg μl^−1. Precision-bore glass capillary tubes (3.5-inch glass capillaries; Drummond Scientific Co.) were pulled on a vertical puller (P-87 Flaming/Brown micropipette puller, Sutter Instrument Co.), graduated, and placed on a microinjector (Nanoject II Auto-Nanoliter Injector, Drummond Scientific Co.). 50 nl of nuclease-free water alone (control oocytes) or 50 nl of 0.6 μg μl^−1 RNA were injected under stereomicroscopic control. Injected oocytes were incubated for 46–72 h at 18 °C with twice-daily buffer changes before usage in experiments.
(§3) Drug uptake assays were performed as described previously[21],[22],[24],[34]. […] The direction of radio-labeled drug transport is here from the mostly acidic extracellular solution (pH 4.5 or 6.0, as indicated) into the oocyte cytosol (pH ∼ 7.2), which corresponds to the efflux of drug from the acidic digestive vacuole (pH 5.2) into the parasite cytoplasm (pH 7.2). The topology of PfCRT in the oolemma is such that both the N- and C-terminus face the extracellular milieu[3],[22]. In the parasite, the N- and C-terminus face the lumen of the digestive vacuole. CQ uptake kinetics were performed by incubating oocytes in ND96 buffer adjusted to a pH of 4.5, 5.0, 5.5, or 6.0 and supplemented with 50 nM [^3H]CQ and one of 7 different CQ concentrations (10 µM, 50 µM, 100 µM, 200 µM, 300 µM, 400 µM, 500 µM CQ). The reaction was stopped at the 60 min time point, which is in the linear uptake range[22],[34] (Supplementary Fig. 17). For determination of the amount of drug uptake for each oocyte, the reaction medium was removed and the oocytes were washed three times with 2 ml of ice-cold ND96 buffer. Each oocyte was individually transferred to a scintillation vial containing 5% sodium dodecyl sulfate (200 μl) for lysis. The radioactivity of each sample was measured using a liquid scintillation analyzer Tri-Carb 4910 TR (PerkinElmer). Oocytes that were injected with water instead of RNA were analyzed in parallel, representing the uptake of a drug by diffusion and/or endogenous permeation pathways. The resulting value represents the “background“ level of drug accumulation in oocytes (in-depth discussion in[22]). […]

PfCRT variant H46A = molecular target: T2, PfCRT variant H46A (Plasmodium falciparum, UniProt Q9N623, A220S/H46A/I356T/K76T/M74I/N326S/N75E/Q271E/R371I); test: CQ uptake assay, oocytes expressing H46A; assay type: cell-based
T2 sequence (Q9N623 1-424 H46A/M74I/N75E/K76T/A220S/Q271E/N326S/I356T/R371I): T1 sequence (Q9N623 1-424 M74I/N75E/K76T/A220S/Q271E/N326S/I356T/R371I/D377A) with H46A, A377D
Procedure: as §1, §2, §3

[1] = D377A, 50 µM CQ, 1 h, mean ± SEM
[2] = pH 4.5, single replicates, Fig 1d left
[3] = pH 6.0, single replicates, Fig 1d left
[4] = H46A, 50 µM CQ, 1 h, mean ± SEM

SMILES: CCN(CC)CCCC(C)Nc1ccnc2cc(Cl)ccc12 (stereo not drawn) [CQ, chloroquine]
- Activity at pH 4.5 (PfCRT variant D377A; [1]): 0.62 ± 0.01 pmol h-1 oocyte-1
- Activity at pH 6.0 (PfCRT variant D377A; [1]): 1.44 ± 0.13 pmol h-1 oocyte-1
- R-value (PfCRT variant D377A; D377A, CQ transport at pH 4.5 / pH 6.0): 0.44 ± 0.04
- D377A transport activity pH 4.5 (PfCRT variant D377A; [2]): 0.64 pmol oocyte-1 h-1 and 0.61 pmol oocyte-1 h-1
- D377A R-value (PfCRT variant D377A; pH 4.5 vs pH 6.0, Fig 1d left): 0.44 and 0.36 and 0.52
- D377A transport activity pH 6.0 (PfCRT variant D377A; [3]): 1.44 pmol oocyte-1 h-1 and 1.71 pmol oocyte-1 h-1 and 1.17 pmol oocyte-1 h-1
- Activity at pH 4.5 (PfCRT variant H46A; [4]): 2.03 ± 0.27 pmol h-1 oocyte-1
- Activity at pH 6.0 (PfCRT variant H46A; [4]): 5.06 ± 0.47 pmol h-1 oocyte-1
- R-value (PfCRT variant H46A; H46A, CQ transport at pH 4.5 / pH 6.0): 0.40 ± 0.03
- H46A transport activity pH 4.5 (PfCRT variant H46A; [2]): 2.52 pmol oocyte-1 h-1 and 1.13 pmol oocyte-1 h-1 and 2.13 pmol oocyte-1 h-1 and 2.35 pmol oocyte-1 h-1
- H46A R-value (PfCRT variant H46A; pH 4.5 vs pH 6.0, Fig 1d left): 0.45 and 0.32 and 0.36
- H46A transport activity pH 6.0 (PfCRT variant H46A; [3]): 5.57 pmol oocyte-1 h-1 and 3.48 pmol oocyte-1 h-1 and 5.92 pmol oocyte-1 h-1 and 5.27 pmol oocyte-1 h-1
